Patent US11591369B2, “Alpha(v)beta(6) integrin-binding peptides and methods of use thereof” (priority 2018, dated 2023)
“And” between values parts separate entries of the source, which are not always exact repeats. Equal values may be shown once. Read-outs that look alike come from different tables or passages of the source. Where a SMILES comes first, the peptide text is derived from it. Primed or numbered codes have the meaning given here. Where no end group is shown, it is not given here. The star is where a group is joined. (18F)FB = [18F] fluorobenzoyl group, O=C(c1ccc([18F])cc1)*; (18F)FB″ = [18F]fluorobenzoyl, O=C(c1ccc([18F])cc1)*; Benzoyl(4-F) = O=C(c1ccc(F)cc1)*; FB = fluorobenzoyl

Legend:
αvβ6 integrin = target: T1, αvβ6 integrin (Homo sapiens, UniProt P06756+P18564); assay: Competitive binding ELISA against biotinylated LAP (BtLAP), αvβ6 integrin; settings: for fold drop in affinity for αvβ6: compared to T1
T1 construct: All purified integrins were purchased from R&D Systems (MN, USA); purchased R&D Systems (MN, USA)

[1] = Circular dichroism (CD) spectroscopy; type: physicochemical; settings: for % Helical Content CD Buffer: 25 mM phosphate + 100 mM NaF; for % Helical Content CD Buffer + 30% TFE: buffer with 30% trifluoroethanol
DX3puroβ6 (αvβ6+) cells = assay: [18F]-radiolabeled peptide cell binding and internalization, DX3puroβ6 (αvβ6+) cells; type: cell-based, human; settings: for binding to DX3puroβ6 (αvβ6+) cells: % of total activity, 37° C.

T1 sequence (P06756 31-992 limits assumed): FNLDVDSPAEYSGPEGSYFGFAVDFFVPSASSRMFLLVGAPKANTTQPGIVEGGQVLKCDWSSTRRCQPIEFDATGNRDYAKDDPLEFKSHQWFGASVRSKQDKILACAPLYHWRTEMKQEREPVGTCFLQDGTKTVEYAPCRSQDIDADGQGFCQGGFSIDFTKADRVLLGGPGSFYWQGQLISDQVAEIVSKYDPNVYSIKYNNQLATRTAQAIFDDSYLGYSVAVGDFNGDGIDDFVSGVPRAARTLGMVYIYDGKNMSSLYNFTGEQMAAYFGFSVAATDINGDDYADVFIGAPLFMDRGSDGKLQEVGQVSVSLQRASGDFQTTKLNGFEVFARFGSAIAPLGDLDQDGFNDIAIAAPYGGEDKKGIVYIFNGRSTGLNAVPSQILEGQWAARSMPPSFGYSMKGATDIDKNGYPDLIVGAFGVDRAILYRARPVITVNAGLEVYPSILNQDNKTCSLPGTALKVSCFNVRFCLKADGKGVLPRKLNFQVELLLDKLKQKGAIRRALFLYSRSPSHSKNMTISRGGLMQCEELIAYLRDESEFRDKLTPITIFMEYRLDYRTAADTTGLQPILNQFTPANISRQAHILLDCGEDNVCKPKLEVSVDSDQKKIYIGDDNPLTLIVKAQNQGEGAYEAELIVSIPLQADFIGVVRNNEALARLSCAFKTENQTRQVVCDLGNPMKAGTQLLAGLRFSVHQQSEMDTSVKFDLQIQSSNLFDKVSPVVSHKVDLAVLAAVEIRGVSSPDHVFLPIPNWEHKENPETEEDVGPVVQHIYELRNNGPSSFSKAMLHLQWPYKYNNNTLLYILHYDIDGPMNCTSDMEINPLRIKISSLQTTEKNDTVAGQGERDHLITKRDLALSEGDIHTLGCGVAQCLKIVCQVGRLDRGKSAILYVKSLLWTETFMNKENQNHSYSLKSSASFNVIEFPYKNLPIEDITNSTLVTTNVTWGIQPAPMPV
T1 sequence (P18564 22-707 limits assumed): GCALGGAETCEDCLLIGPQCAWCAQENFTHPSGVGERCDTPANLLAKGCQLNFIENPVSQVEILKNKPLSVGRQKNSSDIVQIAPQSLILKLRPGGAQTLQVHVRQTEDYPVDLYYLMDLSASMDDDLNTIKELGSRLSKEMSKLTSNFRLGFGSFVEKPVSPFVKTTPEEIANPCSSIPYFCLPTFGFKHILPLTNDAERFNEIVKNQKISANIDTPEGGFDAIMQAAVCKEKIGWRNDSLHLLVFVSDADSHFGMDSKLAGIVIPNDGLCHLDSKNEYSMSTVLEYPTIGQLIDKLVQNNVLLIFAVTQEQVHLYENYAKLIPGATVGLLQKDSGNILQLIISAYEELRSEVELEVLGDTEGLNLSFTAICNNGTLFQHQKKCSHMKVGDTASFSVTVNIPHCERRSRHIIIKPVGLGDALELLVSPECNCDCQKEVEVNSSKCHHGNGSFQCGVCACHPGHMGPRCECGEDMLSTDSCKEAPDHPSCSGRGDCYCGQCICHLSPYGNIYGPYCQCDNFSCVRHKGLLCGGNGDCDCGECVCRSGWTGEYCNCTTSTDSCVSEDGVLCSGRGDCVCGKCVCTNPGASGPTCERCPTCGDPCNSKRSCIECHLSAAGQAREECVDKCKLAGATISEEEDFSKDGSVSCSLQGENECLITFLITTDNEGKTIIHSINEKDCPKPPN

Compound | % Helical Content CD Buffer [1] [%] | % Helical Content CD Buffer + 30% TFE [1] [%] | fold drop in affinity for αvβ6 (αvβ6 integrin) [fold] | binding to DX3puroβ6 (αvβ6+) cells (DX3puroβ6 (αvβ6+) cells; 1 hour) | further results
CC(C)C[C@H](NC(=O)[C@H](CO)NC(=O)[C@H](CC(=O)O)NC(=O)[C@H](CC(C)C)NC(=O)[C@H](CC(=O)O)NC(=O)[C@@H](NC(=O)[C@H](CCCNC(=N)N)NC(=O)c1ccc(F)cc1)[C@@H](C)O)C(=O)N[C@@H](CCCNC(=N)N)C(=O)N[C@H](C(N)=O)[C@@H](C)O [RTD-9mer, reference compound] | 2.7 | 2.1 | – | – | IC50 (αvβ6 integrin): 22 ± 3 nM; DX3puroβ6 (αvβ6+)/DX3puro (αvβ6−) selectivity ratio (DX3puroβ6 (αvβ6+) cells; cell binding, 1 hour): 1.7±0.2 :1
CC(C)C[C@H](NC(=O)[C@H](CO)NC(=O)[C@H](CC(=O)O)NC(=O)[C@H](CC(C)C)NC(=O)[C@H](CC(=O)O)NC(=O)[C@@H](NC(=O)[C@H](CCCNC(=N)N)NC(=O)c1ccc(F)cc1)[C@@H](C)O)C(=O)N[C@@H](CCCNC(=N)N)C(=O)N[C@@H](CCC(N)=O)C(=O)N[C@@H](CCCCN)C(=O)N[C@H](C(=O)N[C@@H](C)C(=O)N[C@@H](CCCNC(=N)N)C(=O)N[C@H](C(N)=O)[C@@H](C)O)C(C)C [RTD-14mer] ({Benzoyl(4-F)}-RTDLDSLRQKVART-NH2) | 18.1 | 26.2 | – | – | IC50 (αvβ6 integrin): 0.4 ± 0.1 nM; DX3puroβ6 (αvβ6+)/DX3puro (αvβ6−) selectivity ratio (DX3puroβ6 (αvβ6+) cells): 9.1±0.8 :1
CC(C)C[C@H](NC(=O)[C@H](CCCNC(=N)N)NC(=O)CNC(=O)[C@H](CC(C)C)NC(=O)[C@H](CC(=O)O)NC(=O)CNC(=O)[C@H](CCCNC(=N)N)NC(=O)CNC(=O)c1ccc(F)cc1)C(N)=O [SFLAP3-8mer, reference compound] ({Benzoyl(4-F)}-GRGDLGRL-NH2) | 11 | 6.2 | – | – | IC50 (αvβ6 integrin): 89 ± 6.5 nM; DX3puroβ6 (αvβ6+)/DX3puro (αvβ6−) selectivity ratio (DX3puroβ6 (αvβ6+) cells; cell binding, 1 hour): 1.4 ± 0.2:1
CC(C)C[C@H](NC(=O)[C@H](Cc1ccc(O)cc1)NC(=O)[C@@H](NC(=O)[C@H](CC(C)C)NC(=O)[C@H](CC(=O)O)NC(=O)CNC(=O)[C@@H](NC(=O)COCCOCCNC(=O)c1ccc(F)cc1)C(C)C)[C@@H](C)O)C(=O)N[C@@H](CCCCN)C(=O)N[C@@H](CCC(N)=O)C(=O)N[C@@H](CCCCN)C(=O)N[C@H](C(=O)N[C@@H](C)C(=O)N[C@@H](CCCNC(=N)N)C(=O)N[C@H](C(=O)NCCOCCOCCOCCOCCOCCOCCOCCOCCOCCOCCOCCOCCOCCOCCOCCOCCOCCOCCOCCOCCOCCOCCOCCOCCOCCOCCOCCOCCC(N)=O)[C@@H](C)O)C(C)C [T1-a] | – | – | 24 | – | –
CC(C)C[C@H](NC(=O)[C@H](Cc1ccc(O)cc1)NC(=O)[C@@H](NC(=O)[C@H](CC(C)C)NC(=O)[C@H](CC(=O)O)NC(=O)CNC(=O)[C@@H](NC(=O)CCOCCOCCOCCOCCNC(=O)c1ccc(F)cc1)C(C)C)[C@@H](C)O)C(=O)N[C@@H](CCCCN)C(=O)N[C@@H](CCC(N)=O)C(=O)N[C@@H](CCCCN)C(=O)N[C@H](C(=O)N[C@@H](C)C(=O)N[C@@H](CCCNC(=N)N)C(=O)N[C@H](C(=O)NCCOCCOCCOCCOCCOCCOCCOCCOCCOCCOCCOCCOCCOCCOCCOCCOCCOCCOCCOCCOCCOCCOCCOCCOCCOCCOCCOCCOCCC(N)=O)[C@@H](C)O)C(C)C [T1-b] | – | – | 13 | – | –
CC(C)C[C@H](NC(=O)[C@H](Cc1ccc(O)cc1)NC(=O)[C@@H](NC(=O)[C@H](CC(C)C)NC(=O)[C@H](CC(=O)O)NC(=O)CNC(=O)[C@@H](NC(=O)CCOCCOCCOCCOCCOCCOCCOCCOCCNC(=O)c1ccc(F)cc1)C(C)C)[C@@H](C)O)C(=O)N[C@@H](CCCCN)C(=O)N[C@@H](CCC(N)=O)C(=O)N[C@@H](CCCCN)C(=O)N[C@H](C(=O)N[C@@H](C)C(=O)N[C@@H](CCCNC(=N)N)C(=O)N[C@H](C(=O)NCCOCCOCCOCCOCCOCCOCCOCCOCCOCCOCCOCCOCCOCCOCCOCCOCCOCCOCCOCCOCCOCCOCCOCCOCCOCCOCCOCCOCCC(N)=O)[C@@H](C)O)C(C)C [T1-c] | – | – | 50 | – | –
CC(C)C[C@H](NC(=O)[C@H](Cc1ccc(O)cc1)NC(=O)[C@@H](NC(=O)[C@H](CC(C)C)NC(=O)[C@H](CC(=O)O)NC(=O)CNC(=O)[C@@H](NC(=O)CCOCCOCCOCCOCCOCCOCCOCCOCCOCCOCCOCCOCCNC(=O)c1ccc(F)cc1)C(C)C)[C@@H](C)O)C(=O)N[C@@H](CCCCN)C(=O)N[C@@H](CCC(N)=O)C(=O)N[C@@H](CCCCN)C(=O)N[C@H](C(=O)N[C@@H](C)C(=O)N[C@@H](CCCNC(=N)N)C(=O)N[C@H](C(=O)NCCOCCOCCOCCOCCOCCOCCOCCOCCOCCOCCOCCOCCOCCOCCOCCOCCOCCOCCOCCOCCOCCOCCOCCOCCOCCOCCOCCOCCC(N)=O)[C@@H](C)O)C(C)C [T1-d] | – | – | 9 | – | –
CC(C)C[C@H](NC(=O)[C@H](Cc1ccc(O)cc1)NC(=O)[C@@H](NC(=O)[C@H](CC(C)C)NC(=O)[C@H](CC(=O)O)NC(=O)CNC(=O)[C@@H](NC(=O)CCOCCOCCOCCOCCOCCOCCOCCOCCOCCOCCOCCOCCOCCOCCOCCOCCOCCOCCOCCOCCOCCOCCOCCOCCOCCOCCOCCOCCNC(=O)c1ccc(F)cc1)C(C)C)[C@@H](C)O)C(=O)N[C@@H](CCCCN)C(=O)N[C@@H](CCC(N)=O)C(=O)N[C@@H](CCCCN)C(=O)N[C@H](C(=O)N[C@@H](C)C(=O)N[C@@H](CCCNC(=N)N)C(=O)N[C@H](C(=O)NCCOCCOCCOCCOCCOCCOCCOCCOCCOCCOCCOCCOCCOCCOCCOCCOCCOCCOCCOCCOCCOCCOCCOCCOCCOCCOCCOCCOCCC(N)=O)[C@@H](C)O)C(C)C [T1-e] | – | – | 39 | – | –
CC(C)C[C@H](NC(=O)[C@H](Cc1ccc(O)cc1)NC(=O)[C@@H](NC(=O)[C@H](CC(C)C)NC(=O)[C@H](CC(=O)O)NC(=O)CNC(=O)[C@@H](NC(=O)c1ccc(CNC(=O)CCOCCOCCOCCOCCOCCOCCOCCOCCOCCOCCOCCOCCOCCOCCOCCOCCOCCOCCOCCOCCOCCOCCOCCOCCOCCOCCOCCOCCNC(=O)c2ccc(F)cc2)cc1)C(C)C)[C@@H](C)O)C(=O)N[C@@H](CCCCN)C(=O)N[C@@H](CCC(N)=O)C(=O)N[C@@H](CCCCN)C(=O)N[C@H](C(=O)N[C@@H](C)C(=O)N[C@@H](CCCNC(=N)N)C(=O)N[C@H](C(=O)NCCOCCOCCOCCOCCOCCOCCOCCOCCOCCOCCOCCOCCOCCOCCOCCOCCOCCOCCOCCOCCOCCOCCOCCOCCOCCOCCOCCOCCC(N)=O)[C@@H](C)O)C(C)C [T1-g] | – | – | – | – | fold higher binding to αvβ6-integrin (αvβ6 integrin; ELISA, compared to T1-e): 2 fold
FB-RGDLQVLA ({FB}-RGDLQVLA) [A20-8mer, reference compound] | 6.7 | 6.9 | – | – | DX3puroβ6 (αvβ6+)/DX3puro (αvβ6−) selectivity ratio (DX3puroβ6 (αvβ6+) cells; cell binding, 1 hour): 7.8±0.5 :1
FB-RGDLQVLAQKVART [A20-14mer, reference compound] | 15.1 | 35.7 | – | – | DX3puroβ6 (αvβ6+)/DX3puro (αvβ6−) selectivity ratio (DX3puroβ6 (αvβ6+) cells; cell binding, 1 hour): 8.4±0.4 :1
[^18F]FB-RSDLTPLF ({(18F)FB}-RSDLTPLF) [N-[^18F]KL3] | – | – | – | 0.7±0.2% | percent internalized relative to the amount bound to DX3puroβ6 (αvβ6+) cells (DX3puroβ6 (αvβ6+) cells; 1 hour): 23.5±4.7%
[^18F]FB-RSDLTPLFQKVART ({(18F)FB″}-RSDLTPLFQKVART) [N-[^18F]KL3Q] | – | – | – | 1.3±0.1% | percent internalized relative to the amount bound to DX3puroβ6 (αvβ6+) cells (DX3puroβ6 (αvβ6+) cells; 1 hour): 22.8±1.3%; fold increase in cell binding (DX3puroβ6 (αvβ6+) cells; compared to N-[18F]KL3): 2 fold
[^18F]FB-VGDLTYLKKKVART ({(18F)FB″}-VGDLTYLKKKVART) [N-[^18F]P1K-b] | – | – | – | 7.9±0.7% | –
[^18F]FB-VGDLTYLKQKVART ({(18F)FB″}-VGDLTYLKQKVART) [N-[^18F]P1Q] | – | – | – | 5.6±0.2% and 2.1±0.2% and 5.6% | percent internalized relative to the amount bound to DX3puroβ6 (αvβ6+) cells (DX3puroβ6 (αvβ6+) cells; 1 hour): 10.2±1.2%
[^18F]FB-VGDLTYLKRKATVQ ({(18F)FB″}-VGDLTYLKRKATVQ) [N-[^18F]P1Q-Scrb] | – | – | – | 2.1±0.2% | DX3puroβ6 (αvβ6+)/DX3puro (αvβ6−) selectivity ratio (DX3puroβ6 (αvβ6+) cells): 1.7±0.06 :1
